Here are results for two compounds from paper PMC12181431, “Unveiling the structure, function and dynamics of StmPr1 in Stenotrophomonas maltophilia virulence” (Scientific Reports, 2025).

One assay addresses T1, StmPr1 (Stenotrophomonas maltophilia, UniProt Q93IQ4).
T1 construct: StmPr1 36 kDa (self-digested from 47 kDa, C-terminal extension cleaved)
The assay is described as follows: X-ray crystal structure ([…] Å) plus protease activity assay. Type of assay: biochemical.

In another assay the target is T2, Proteinase K (Parengyodontium album, UniProt P06873).
T2 construct: gene PROK
T2 sequence (P06873 106-384): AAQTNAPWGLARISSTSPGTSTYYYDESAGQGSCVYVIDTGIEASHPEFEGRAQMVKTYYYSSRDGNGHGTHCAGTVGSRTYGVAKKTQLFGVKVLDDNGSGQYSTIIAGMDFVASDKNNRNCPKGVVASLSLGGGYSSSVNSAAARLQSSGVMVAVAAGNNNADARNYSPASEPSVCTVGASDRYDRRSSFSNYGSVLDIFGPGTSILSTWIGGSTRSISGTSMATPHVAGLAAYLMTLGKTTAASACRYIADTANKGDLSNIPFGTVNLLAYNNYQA
The assay is described as follows: protease activity assay (same assay as for StmPr1). The format is biochemical.

Like-named read-outs stand apart in the source and are kept apart here.

One may read the IC50 as the point on the concentration scale where inhibition reaches its midpoint.

T1 sequence (Q93IQ4 entry or part of it): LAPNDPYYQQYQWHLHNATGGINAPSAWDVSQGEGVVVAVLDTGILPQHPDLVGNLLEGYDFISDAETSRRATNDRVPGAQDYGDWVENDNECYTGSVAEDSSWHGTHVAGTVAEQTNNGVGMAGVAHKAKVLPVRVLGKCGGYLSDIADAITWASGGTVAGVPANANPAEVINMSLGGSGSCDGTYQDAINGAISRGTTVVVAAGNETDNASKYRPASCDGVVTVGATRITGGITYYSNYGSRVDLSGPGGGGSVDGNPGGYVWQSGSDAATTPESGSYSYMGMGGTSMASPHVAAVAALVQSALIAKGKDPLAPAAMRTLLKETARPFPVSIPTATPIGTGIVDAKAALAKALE

`O=S(=O)(F)Cc1ccccc1` [PMSF]: the 50% inhibitory concentration (IC50) on StmPr1 was determined as 125 µM.

Take `CC(C)C[C@H](NC(=O)[C@H](Cc1ccccc1)NC(=O)c1cnccn1)B(O)O` [Bortezomib]: the 50% inhibitory concentration (IC50) on StmPr1 (read-out: IC50) was found to be 1.97 µM; against Proteinase K, 1.45 µM.
